For the assay, the system named is osteoclast precursors (bone marrow macrophages). Description: Osteoclast differentiation of bone marrow macrophage cultures monitored by TRAP activity. It counts as cell-based. To be noted: cell cultures of osteoclast precursors (mouse BMMs) with M-CSF, increasing concentrations of peptide, FIG. 1. As to the method: The effect of a partial AA″ loop polypeptide of RANKL on TRAP activity. Wild type C3H/HENJ mice were purchased from Harlan Industries (Indianapolis, Ind.). In order to establish a cell culture of osteoclast precursors, bone marrow macrophages (BMMs) were isolated from whole bone marrow of four to six week old mice and incubated in tissue culture dishes at 37° C. in 5% CO2. After 24 hours in culture, the non-adherent cells were collected and layered on a Ficoll Hypaque gradient and the cells at the gradient interface were collected. Cells were replated at 65,000/cm^2 in α-minimal essential medium, supplemented with 10% heat inactivated fetal bovine serum, at 37° C. in 5% CO2 in the presence of recombinant mouse M-CSF (10 ng.ml). The cell cultures were then treated either with the increasing concentrations of polypeptide of SEQ ID NO 1 (subset of AA″ loop) or with a negative control scrambled peptide having the same molecular weight as the test compound. […] This phosphatase is an osteoclast specific enzyme and its activity corresponds with osteoclast differentiation. TRAP activity is measured by quantitating its ability to cleave a substrate in a color-producing reaction.

“Also recorded” adds a separate entry of the source.

This note sets out measurements from patent publication US20030109444A1, “Bone anti-resorptive compounds” (priority 2001, published 2003).

In the case of PSGSHKVTLSS [SEQ ID NO 1], the TRAP activity result is reported as “decreases TRAP activity”. The “inhibition of RANKL-induced osteoclast differentiation as monitored by TRAP” value (listed as test compound) is given as “competitively inhibits the ability of RANKL to induce osteoclast differentiation; also recorded: dose-dependent”.
